{"source": "BindingDB's records for PubMed 1346637", "about": "(Mayo Clinic, 1992)", "key": {"[1]": {"molecular_target": "T1, Muscarinic acetylcholine receptor M4 (Homo sapiens, UniProt P08173)", "T1 sequence (P08173 whole entry)": "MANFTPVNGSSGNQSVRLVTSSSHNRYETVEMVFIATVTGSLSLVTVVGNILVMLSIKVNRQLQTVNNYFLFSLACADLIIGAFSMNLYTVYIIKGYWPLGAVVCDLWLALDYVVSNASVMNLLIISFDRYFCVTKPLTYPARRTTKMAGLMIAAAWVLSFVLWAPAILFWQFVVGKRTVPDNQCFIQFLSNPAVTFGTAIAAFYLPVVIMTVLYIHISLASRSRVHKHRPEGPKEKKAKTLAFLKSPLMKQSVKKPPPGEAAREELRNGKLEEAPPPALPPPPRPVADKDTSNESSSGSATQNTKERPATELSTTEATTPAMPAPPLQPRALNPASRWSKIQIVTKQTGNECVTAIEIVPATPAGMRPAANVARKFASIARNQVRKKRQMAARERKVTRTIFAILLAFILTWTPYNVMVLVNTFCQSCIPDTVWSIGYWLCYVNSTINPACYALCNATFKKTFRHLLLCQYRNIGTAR"}, "[2]": {"molecular_target": "T2, Muscarinic acetylcholine receptor M5 (Homo sapiens, UniProt P08912)", "T2 sequence (P08912 whole entry)": "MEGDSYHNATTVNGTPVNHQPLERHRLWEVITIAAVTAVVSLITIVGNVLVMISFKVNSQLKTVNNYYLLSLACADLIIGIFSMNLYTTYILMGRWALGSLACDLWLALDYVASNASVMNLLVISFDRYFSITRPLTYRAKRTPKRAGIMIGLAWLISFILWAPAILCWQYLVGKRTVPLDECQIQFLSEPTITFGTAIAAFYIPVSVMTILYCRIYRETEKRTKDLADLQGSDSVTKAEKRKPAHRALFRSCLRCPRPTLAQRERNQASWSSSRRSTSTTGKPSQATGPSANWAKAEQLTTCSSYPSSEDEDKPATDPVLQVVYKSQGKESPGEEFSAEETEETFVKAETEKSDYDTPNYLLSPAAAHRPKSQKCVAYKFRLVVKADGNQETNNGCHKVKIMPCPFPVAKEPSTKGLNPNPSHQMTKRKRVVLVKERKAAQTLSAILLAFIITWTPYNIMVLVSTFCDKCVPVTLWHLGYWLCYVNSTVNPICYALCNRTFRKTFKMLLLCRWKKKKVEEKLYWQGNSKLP"}, "[3]": {"molecular_target": "T3, Muscarinic acetylcholine receptor M2 (Homo sapiens, UniProt P08172)", "T3 sequence (P08172 whole entry)": "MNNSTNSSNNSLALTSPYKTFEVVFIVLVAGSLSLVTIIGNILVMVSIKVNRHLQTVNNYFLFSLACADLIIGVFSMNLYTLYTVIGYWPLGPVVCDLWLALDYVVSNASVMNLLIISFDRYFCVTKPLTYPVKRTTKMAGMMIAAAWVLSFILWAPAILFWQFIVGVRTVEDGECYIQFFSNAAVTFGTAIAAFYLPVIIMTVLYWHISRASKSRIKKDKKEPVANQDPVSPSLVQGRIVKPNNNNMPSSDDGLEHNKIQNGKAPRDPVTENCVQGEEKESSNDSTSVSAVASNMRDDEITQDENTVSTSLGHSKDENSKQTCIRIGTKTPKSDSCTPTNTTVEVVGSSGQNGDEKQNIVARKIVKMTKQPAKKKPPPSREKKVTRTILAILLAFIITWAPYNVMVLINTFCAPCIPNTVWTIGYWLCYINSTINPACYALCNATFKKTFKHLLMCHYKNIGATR"}}, "data": [{"smiles": "CN1CCN(C2=Nc3cc(F)ccc3Cc3ccccc32)CC1", "values": [{"measurement": "Ki", "setting": "[1]", "value": 14, "unit": "nM"}, {"measurement": "Ki", "setting": "[2]", "value": 17, "unit": "nM"}, {"measurement": "Ki", "setting": "[3]", "value": 71, "unit": "nM"}]}, {"smiles": "CN(C)CC/C=C1\\c2ccccc2Sc2ccc(Cl)cc21", "values": [{"measurement": "Ki", "setting": "[1]", "value": 18, "unit": "nM"}, {"measurement": "Ki", "setting": "[2]", "value": 25, "unit": "nM"}]}, {"smiles": "CN1CCCCC1CCN1c2ccccc2Sc2ccc([S+](C)[O-])cc21", "note": "(centres undefined)", "values": [{"measurement": "Ki", "setting": "[1]", "value": 19, "unit": "nM"}, {"measurement": "Ki", "setting": "[2]", "value": 60, "unit": "nM"}, {"measurement": "Ki", "setting": "[3]", "value": 15, "unit": "nM"}]}, {"smiles": "OC(CCN1CCCCC1)(c1ccccc1)C1CC2C=CC1C2", "note": "(centres undefined) [1-(bicyclo[2.2.1]hept-5-en-2-yl)-1-phenyl-3-(piperidin-1-yl)propan-1-ol]", "values": [{"measurement": "Ki", "setting": "[1]", "value": 2.4, "unit": "nM"}, {"measurement": "Ki", "setting": "[2]", "value": 6.3, "unit": "nM"}]}, {"smiles": "OC(CCN1CCCC1)(c1ccccc1)C1CCCCC1", "note": "(centres undefined) [1-Cyclohexyl-1-phenyl-3-pyrrolidin-1-yl-propan-1-ol]", "values": [{"measurement": "Ki", "setting": "[1]", "value": 7, "unit": "nM"}, {"measurement": "Ki", "setting": "[2]", "value": 24, "unit": "nM"}]}, {"smiles": "CN(C)CCOC1=Cc2ccccc2Sc2ccc(Cl)cc21", "note": "[2-Chloro-11-(2-(dimethylamino)ethoxy)dibenzo(b,f)thiepin]", "values": [{"measurement": "Ki", "setting": "[1]", "value": 77, "unit": "nM"}, {"measurement": "Ki", "setting": "[2]", "value": 260, "unit": "nM"}]}, {"smiles": "CN1CCN(C2=Nc3ccccc3Oc3ccc(Cl)cc32)CC1", "note": "[13-chloro-10-(4-methylpiperazin-1-yl)-2-oxa-9-azatricyclo[9.4.0.0^{3,8}]pentadeca-1(11),3,5,7,9,12,14-heptaene]", "values": [{"measurement": "Ki", "setting": "[1]", "value": 300, "unit": "nM"}, {"measurement": "Ki", "setting": "[2]", "value": 241, "unit": "nM"}]}, {"smiles": "O=C(CCCN1CCC(O)(c2ccc(Br)cc2)CC1)c1ccc(F)cc1", "note": "[BROMPERIDOL]", "values": [{"measurement": "Ki", "setting": "[1]", "value": 1700, "unit": "nM"}, {"measurement": "Ki", "setting": "[2]", "value": 4800, "unit": "nM"}, {"measurement": "Ki", "setting": "[3]", "value": 1800, "unit": "nM"}]}, {"smiles": "CC1CCN(CCCC(=O)c2ccc(F)cc2)CC1", "note": "[CAS_3575-80-2]", "values": [{"measurement": "Ki", "setting": "[1]", "value": 4400, "unit": "nM"}, {"measurement": "Ki", "setting": "[2]", "value": "> 10000", "unit": "nM"}, {"measurement": "Ki", "setting": "[3]", "value": 2400, "unit": "nM"}]}, {"smiles": "CN1CCN(C2=Cc3cc(Cl)ccc3C(=CC#N)c3ccccc32)CC1", "note": "[CAS_79781-95-6]", "values": [{"measurement": "Ki", "setting": "[1]", "value": 1000, "unit": "nM"}, {"measurement": "Ki", "setting": "[2]", "value": 1100, "unit": "nM"}, {"measurement": "Ki", "setting": "[3]", "value": 470, "unit": "nM"}]}, {"smiles": "CN1CCN(CC/C=C2/c3ccccc3Sc3ccc(S(=O)(=O)N(C)C)cc32)CC1", "note": "[MLS000028463]", "values": [{"measurement": "Ki", "setting": "[1]", "value": 1540, "unit": "nM"}, {"measurement": "Ki", "setting": "[2]", "value": 4310, "unit": "nM"}, {"measurement": "Ki", "setting": "[3]", "value": 2100, "unit": "nM"}]}, {"smiles": "CN1CCN(C2=Nc3cscc3C(=CC#N)c3cscc32)CC1", "note": "[NSC_3086153]", "values": [{"measurement": "Ki", "setting": "[1]", "value": 430, "unit": "nM"}, {"measurement": "Ki", "setting": "[2]", "value": 660, "unit": "nM"}, {"measurement": "Ki", "setting": "[3]", "value": 62, "unit": "nM"}]}, {"smiles": "O=C1CC2(CCCC2)CC(=O)N1CCCCN1CCN(c2nsc3ccccc23)CC1", "note": "[TIOSPERONE]", "values": [{"measurement": "Ki", "setting": "[1]", "value": 480, "unit": "nM"}, {"measurement": "Ki", "setting": "[2]", "value": 3900, "unit": "nM"}, {"measurement": "Ki", "setting": "[3]", "value": 180, "unit": "nM"}]}]}
